# According to patent publication US20170150719A1, “FUNGICIDAL PYRAZOLES AND THEIR MIXTURES” (E I DU PONT DE NEMOURS AND COMPANY, priority 2010, published 2017):
# Marks after values point to notes of the source that are not given here.
# What was measured:
# Botrytis cinerea = assay: Test A: tomato Botrytis, preventive spray on tomato seedlings, visual disease rating; conditions: for pest or weed control at 200 µg/mL: Botrytis cinerea, in Solanum lycopersicum, read-out: Test A rating (disease control), tomato Botrytis; for pest or weed control at 200 µg/mL / Test A rating (% disease control) / Test A rating (disease control): 100 = 100% disease control; for pest or weed control at 200 µg/mL / Test A rating (disease control): 0 = no disease control relative to the controls; for Test A rating (% disease control): preventive spray, 0 = no control relative to controls, rating without asterisk
# Experimental: (§2) General protocol for preparing test suspensions for Tests A-I: the test compounds were first dissolved in acetone in an amount equal to 3% of the final volume and then suspended at the desired concentration (in ppm) in acetone and purified water (50/50 mix by volume) containing 250 ppm of the surfactant Trem® 014 (polyhydric alcohol esters). The resulting test suspensions were then used in Tests A-I. Each test was conducted in triplicate, and the results were averaged. Spraying a 200 ppm test suspension to the point of run-off on the test plants was the equivalent of a rate of about 800 g/ha. Unless otherwise indicated, the rating values indicate a 200 ppm test suspension was used. (An asterisk “*” next to the rating value indicates a 40 ppm test suspension was used.)
# The test suspension was sprayed to the point of run-off on tomato seedlings. The following day the seedlings were inoculated with a spore suspension of Botrytis cinerea (the causal agent of tomato Botrytis) and incubated in saturated atmosphere at 20° C. for 48 h, and then moved to a growth chamber at 24° C. for 3 additional days, after which time visual disease ratings were made.
# Septoria nodorum = assay: Test E: Septoria glume blotch, preventive spray on wheat seedlings, visual disease rating; conditions: for pest or weed control at 200 µg/mL: Parastagonospora nodorum, in Triticum aestivum, read-out: Test E rating (disease control), Septoria glume blotch; for pest or weed control at 200 µg/mL / Test E rating (% disease control) / Test E rating (disease control): 100 = 100% disease control; for pest or weed control at 200 µg/mL / Test E rating (disease control): 0 = no disease control relative to the controls; for Test E rating (% disease control): Septoria glume blotch on wheat, preventive spray, rating without asterisk
# Septoria tritici = assay: Test F: wheat leaf blotch, preventive spray on wheat seedlings, visual disease rating; assay type: in vivo; parameters: Test F rating (disease control), value marked *: concentration or dose not given beside the values; conditions: for pest or weed control at 200 µg/mL: Zymoseptoria tritici; for pest or weed control at 200 µg/mL / Test F rating (% disease control) / Test F rating (disease control): 100 = 100% disease control; for pest or weed control at 200 µg/mL / Test F rating (disease control): 0 = no disease control relative to the controls; for Test F rating (% disease control): preventive spray, rating without asterisk
# Text: (§1) A hyphen (-) indicates no test results.
# Alternaria solani = assay: Test B: tomato early blight, preventive spray on tomato seedlings, visual disease rating; conditions: for pest or weed control at 200 µg/mL: Alternaria solani, in Solanum lycopersicum, read-out: Test B rating (disease control); for Test B rating (% disease control): preventive spray, rating without asterisk; for Test B rating (% disease control) / Test B rating (disease control): 100 = 100% disease control; for Test B rating (disease control): 0 = no disease control relative to the controls
# [1] = test system: Puccinia recondita f. sp. tritici; assay: Test H: wheat leaf rust, preventive spray on wheat seedlings, visual disease rating; conditions: for pest or weed control at 200 µg/mL: read-out: Test H rating (disease control), wheat leaf rust, sprayed the day before inoculation; for pest or weed control at 200 µg/mL / Test H rating (% disease control) / Test H rating (disease control): 100 = 100% disease control; for pest or weed control at 200 µg/mL / Test H rating (disease control): 0 = no disease control; for Test H rating (% disease control): preventive spray, rating without asterisk; for Test H rating (disease control): sprayed the day before inoculation
# [2] = test system: Puccinia recondita f. sp. tritici; assay: Test G: wheat leaf rust, spray after inoculation (curative) on wheat seedlings, visual disease rating; assay type: in vivo; conditions: for pest or weed control at 200 µg/mL / Test G rating (% disease control) / Test G rating (disease control): 100 = 100% disease control; for pest or weed control at 200 µg/mL / Test G rating (disease control): 0 = no disease control; for Test G rating (% disease control): spray after inoculation, rating without asterisk
# Text: as §1
# [3] = test system: Blumeria graminis f. sp. tritici; assay: Test I: wheat powdery mildew, preventive spray on wheat seedlings, visual disease rating; conditions: for pest or weed control at 200 µg/mL: Blumeria graminis, in Triticum aestivum, read-out: Test I rating (disease control), wheat powdery mildew; for pest or weed control at 200 µg/mL / Test I rating (% disease control) / Test I rating (disease control): 100 = 100% disease control; for pest or weed control at 200 µg/mL / Test I rating (disease control): 0 = no disease control relative to the controls; for Test I rating (% disease control): preventive spray, rating without asterisk
# Experimental: as §2
# The test suspension was sprayed to the point of run-off on wheat seedlings. The following day the seedlings were inoculated with a spore dust of Blumeria graminis f. sp. tritici (also known as Erysiphe graminis f. sp. tritici, the causal agent of wheat powdery mildew) and incubated in a growth chamber at 20° C. for 8 days, after which time visual disease ratings were made.
SMILES,Test A rating (disease control) (Botrytis cinerea; tomato Botrytis),Test E rating (disease control) (Septoria nodorum; Septoria glume blotch),Test F rating (disease control) (Septoria tritici),Test B rating (disease control) (Alternaria solani; tomato early blight),Test H rating (disease control) ([1]; wheat leaf rust),Test G rating (disease control) ([2]; sprayed after inoculation),Test I rating (disease control) ([3]; wheat powdery mildew),also measured
"Cc1nn(C)c(Oc2c(F)cc(C#N)cc2F)c1-c1ccc(F)cc1Cl [Compound 13, 4-[[4-(2-chloro-4-fluorophenyl)-1,3-dimethyl-1H-pyrazol-5-yl]oxy]-3,5-difluorobenzonitrile]",,,,,,,,pest or weed control at 200 µg/mL (Botrytis cinerea): 100%; pest or weed control at 200 µg/mL (Septoria nodorum): 100%; pest or weed control at 200 µg/mL (Septoria tritici): 100%; pest or weed control at 200 µg/mL (Alternaria solani): 100%; pest or weed control at 200 µg/mL [1]: 100%; pest or weed control at 200 µg/mL ([2]; sprayed after inoculation): 7%; pest or weed control at 200 µg/mL [3]: 100%
CCOc1ccc(-c2c(C)nn(C)c2Nc2c(F)cc(Cl)cc2Cl)c(Cl)c1 [compound 202],,,,,,,,Test A rating (% disease control) (Botrytis cinerea; tomato Botrytis): 99%; Test E rating (% disease control) (Septoria nodorum): 0%; Test F rating (% disease control) (Septoria tritici): 100%; Test B rating (% disease control) (Alternaria solani; tomato early blight): 77%; Test H rating (% disease control) ([1]; wheat leaf rust): 92%; Test G rating (% disease control) [2]: 35%; Test I rating (% disease control) ([3]; wheat powdery mildew): 95%
CCOc1ccc(-c2c(C)nn(C)c2Nc2c(F)cc(Cl)cc2F)c(Cl)c1 [compound 207],,,,,,,,Test A rating (% disease control) (Botrytis cinerea; tomato Botrytis): 94%; Test E rating (% disease control) (Septoria nodorum): 86%; Test F rating (% disease control) (Septoria tritici): 100%; Test B rating (% disease control) (Alternaria solani; tomato early blight): 99%; Test H rating (% disease control) ([1]; wheat leaf rust): 94%; Test G rating (% disease control) [2]: 0%; Test I rating (% disease control) ([3]; wheat powdery mildew): 99%
Cc1nn(C)c(Nc2c(F)cc(F)cc2I)c1-c1ccc(F)cc1Cl [compound 213],,,,,,,,Test A rating (% disease control) (Botrytis cinerea; tomato Botrytis): 100%; Test E rating (% disease control) (Septoria nodorum): 100%; Test F rating (% disease control) (Septoria tritici): 100%; Test B rating (% disease control) (Alternaria solani; tomato early blight): 100%; Test H rating (% disease control) ([1]; wheat leaf rust): 100%; Test G rating (% disease control) [2]: 100%; Test I rating (% disease control) ([3]; wheat powdery mildew): 100%
Cc1nn(C)c(Nc2ccc(F)cc2Cl)c1-c1ccc(Cl)cc1Cl [compound 125],99%,0%,100%,0%,98%,82%,100%,
Cc1nn(C)c(Oc2ccc(C#N)cc2Cl)c1-c1ccc(Cl)cc1Cl [compound 131],100%,0%,100%,0%,96%,0%,96%,
Cc1nn(C)c(Nc2c(F)cc(C#N)cc2F)c1-c1c(F)cccc1Cl [compound 57],97%,73%,100%,100%,99%,0%,99%,
COc1cc(F)c(-c2c(C)nn(C)c2Nc2c(F)cc(C#N)cc2F)c(F)c1 [compound 20],100%,40%,99%,100%,68%,0%,13%,
"COc1cc(F)c(Nc2c(-c3ccc(F)cc3Cl)c(C)nn2C)c(F)c1 [Compound 3, 4-(2-chloro-4-fluorophenyl)-N-(2,6-difluoro-4-methoxyphenyl)-1,3-dimethyl-1H-pyrazol-5-amine]",,,,,,,,pest or weed control at 200 µg/mL (Botrytis cinerea): 100%; pest or weed control at 200 µg/mL (Septoria nodorum): 93%; pest or weed control at 200 µg/mL (Septoria tritici): 97%; pest or weed control at 200 µg/mL (Alternaria solani): 100%; pest or weed control at 200 µg/mL [1]: 100%; pest or weed control at 200 µg/mL ([2]; sprayed after inoculation): 96%; pest or weed control at 200 µg/mL [3]: 100%
"Cc1nn(C)c(Oc2c(F)cc(C#N)cc2F)c1-c1c(F)cc(F)cc1F [Compound 8, 4-[[1,3-dimethyl-4-(2,4,6-trifluorophenyl)-1H-pyrazol-5-yl]oxy]-3,5-difluorobenzonitrile]",,,,,,,,"Test A rating (disease control), value marked * (Botrytis cinerea; tomato Botrytis, rating marked with asterisk (*), other test condition, not explained in the text shown): 99* %; Test E rating (disease control), value marked * (Septoria nodorum; Septoria glume blotch, rating marked with asterisk (*), other test condition, not explained in the text shown): 0* %; Test F rating (disease control), value marked * (Septoria tritici; rating marked with asterisk (*), other test condition, not explained in the text shown): 47* %; Test B rating (disease control), value marked * (Alternaria solani; tomato early blight, rating marked with asterisk (*), other test condition, not explained in the text shown): 98* %; Test H rating (disease control), value marked * ([1]; wheat leaf rust, preventive, rating marked with asterisk (*), not explained in the text shown): 79* %; Test G rating (disease control), value marked * ([2]; sprayed after inoculation, rating marked with asterisk (*), not explained in the text shown): 15* %; Test I rating (disease control), value marked * ([3]; wheat powdery mildew, rating marked with asterisk (*), not explained in the text shown): 60* %"
COc1cc(F)c(Nc2c(-c3c(F)cc(OC)cc3F)c(C)nn2C)c(F)c1 [compound 21],100%,89%,99%,100%,96%,99%,94%,
Cc1nn(C)c(Nc2c(F)cc(F)cc2I)c1-c1ccc(F)cc1Br [compound 215],,,,,,,,Test A rating (% disease control) (Botrytis cinerea; tomato Botrytis): 100%; Test E rating (% disease control) (Septoria nodorum): 99%; Test F rating (% disease control) (Septoria tritici): 100%; Test B rating (% disease control) (Alternaria solani; tomato early blight): 100%; Test H rating (% disease control) ([1]; wheat leaf rust): 100%; Test G rating (% disease control) [2]: 100%; Test I rating (% disease control) ([3]; wheat powdery mildew): 100%
COc1cc(F)c(-c2c(C)nn(C)c2Oc2ccc(Cl)cc2Cl)c(F)c1 [compound 10],99%,0%,94%,0%,99%,92%,99%,
Cc1nn(C)c(Nc2c(F)cc(F)cc2Br)c1-c1ccc(F)cc1I [compound 226],,,,,,,,Test A rating (% disease control) (Botrytis cinerea; tomato Botrytis): 97%; Test E rating (% disease control) (Septoria nodorum): 60%; Test F rating (% disease control) (Septoria tritici): 100%; Test B rating (% disease control) (Alternaria solani; tomato early blight): 97%; Test H rating (% disease control) ([1]; wheat leaf rust): 99%; Test G rating (% disease control) [2]: 0%; Test I rating (% disease control) ([3]; wheat powdery mildew): 100%
Cc1nn(C)c(Nc2ccc(Cl)cc2Cl)c1-c1c(F)cccc1F [compound 50],100%,73%,95%,99%,93%,0%,100%,
Cc1nn(C)c(Nc2ccc(C#N)cc2F)c1-c1ccc(F)cc1F [compound 68],99%,0%,100%,51%,80%,0%,100%,
COc1cc(F)c(-c2c(C)nn(C)c2C(O)c2ccc(F)cc2F)c(F)c1 (centres unmarked) [compound 62],100%,99%,100%,100%,99%,0%,99%,
"Cc1nn(C)c(Oc2ccc(C#N)cc2F)c1-c1c(F)cccc1F [Compound 130, 4-[[4-(2,6-difluorophenyl)-1,3-dimethyl-1H-pyrazol-5-yl]oxy]-3-fluorobenzonitrile]",,,,,,,,pest or weed control at 200 µg/mL (Botrytis cinerea): 100%; pest or weed control at 200 µg/mL (Septoria nodorum): 0%; pest or weed control at 200 µg/mL (Septoria tritici): 100%; pest or weed control at 200 µg/mL (Alternaria solani): 90%; pest or weed control at 200 µg/mL [1]: 100%; pest or weed control at 200 µg/mL ([2]; sprayed after inoculation): 0%; pest or weed control at 200 µg/mL [3]: 100%
Cc1nn(C)c(Nc2c(F)cccc2F)c1-c1c(F)cccc1F [compound 69],100%,60%,100%,99%,99%,0%,100%,
Cc1nn(C)c(Nc2c(Cl)cc(Br)cc2Cl)c1-c1ccc(F)cc1Cl [compound 164],99%,0%,100%,0%,100%,99%,99%,
